Results on 85 molecules are retold here after PubChem BioAssay AID1250 (SRMLSC, 2008).

Structures are written as SMILES. Calls of active or inactive are those of the source.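 The calls were made as follows: active = inhibition of at least 30% at one or more tested concentrations; inactive = inhibition below 30% at every dose.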

This test can be described thus: inhibitors of Bluetongue virus cytopathic effect, confirmation, arbovirus, BSR cells (AID 1250). Particulars: BSR cells, Bluetongue virus CPE, ATP luminescence, 72 h; at 20 µM (top of the series). Background: Damage to the host cells serves as the signal in cytopathic effect assays.

As to `CC(=O)c1ccc(N2CCN(C(=O)c3cc(-c4cccnc4)nc4ccc(Br)cc34)CC2)cc1`, the CPE inhibition was 0.41% (inactive).
Then `C/C(C/C(C)=C1/SC(=S)NC1=O)=C1\SC(=S)NC1=O`, with 6.76% (inactive); and `C/C(=N\NC(=O)c1ccccc1)c1nc2ccccc2n1C`, with -15.5% (inactive).
Then `CCCc1cc2c(OC(=O)CC)c(-c3ccc(C(=O)OCC)o3)c(=O)oc2cc1OC`, with 19.6% (inactive); and `OC(c1ccccc1)C1CN(Cc2ccccc2)CCC1(O)c1ccccc1` (stereo not given), with 20.9% (inactive).
Under `CC(C)Oc1cccc(C(=O)NC(=S)Nc2ccccc2)c1` stands 6.77% (inactive); under `COc1ccccc1N1CCN(Cc2cc(C)c(C)cc2O)CC1`, 25.1% (inactive).
Consider `Cc1ccc(-c2cc(-c3ccccc3)no2)c(O)c1`, for which the CPE inhibition is 15.6% (inactive).
Then `Fc1ccccc1COc1ccc2ccccc2c1CNc1nn[nH]n1`, with 11.5% (inactive).
Under `CCOc1ccc2nc(NC(=O)C3CCN(S(=O)(=O)c4cnc[nH]4)CC3)sc2c1` stands 11.9% (inactive).
Under `Cc1cccc(N2CCN(C(=O)C3COc4ccccc4O3)CC2)c1C` (stereo not given) stands 19.7% (inactive); under `CC(C)S(=O)(=O)c1nsc2nc(=O)c(/C=C3\C=Nc4ccccc43)c(N)n12`, 22% (inactive); under `CCOC(=O)CSc1nc2c(sc(=S)n2-c2ccc(OCC)cc2)c(=O)[nH]1`, 19.1% (inactive).
Consider `COCCn1c(-c2ccc(Cl)cc2)cnc1SCC(=O)NCc1cccs1`, for which the CPE inhibition is 18.9% (inactive).
Then `N#Cc1c(-c2ccccc2)nc(SCC(=O)N(c2ccccc2)c2ccccc2)[nH]c1=O`, with 12.2% (inactive).
Regarding `Cc1ccccc1N=C1NC(=O)/C(=C/c2cccn2-c2cccc(C(=O)O)c2)S1`, the CPE inhibition is 21.3% (inactive).
Then `COc1ccc(-c2csc(NC(=O)Cc3cccc4ccccc34)c2C(=O)O)cc1`, with 24.9% (inactive); and `CCOC(=O)c1c(NC(=O)CSc2ccccc2C(=O)O)sc(C)c1C`, with 19.3% (inactive).
Then `O=C/C(=C\Nc1ccc(Cl)cn1)c1nc2cc(Cl)ccc2o1`, with 10.2% (inactive).
Turning to `Oc1ccc(Br)cc1-c1cc(-c2ccccc2)n[nH]1`, the CPE inhibition was 19.6% (inactive).
Turning to `COc1ccc(CN(C(=O)c2oc3ccccc3c2C)C2CCS(=O)(=O)C2)cc1OC` (stereo not given), the CPE inhibition was 18.3% (inactive).
As for `CCCCCCc1cc2cc(C(=O)Nc3ccc(OC)cc3)c(=O)oc2cc1O`, the CPE inhibition was -3.41% (inactive).
Turning to `C=CCc1cccc2cc(C(=O)Nc3ccccc3C(=O)O)c(=O)oc12`, the CPE inhibition is 17.4% (inactive).
Under `CCOC(=O)C1(Cc2cccc(OC)c2)CCN(Cc2cccc(OC)c2O)CC1` stands 24.8% (inactive); under `Cc1ccccc1-n1nc(CSc2nc3ccccc3[nH]2)c(-c2ccccc2)c1N`, 14.9% (inactive); under `O=C(NC1CCN(Cc2ccccc2)CC1)c1cccc(S(=O)(=O)Nc2cc(C(F)(F)F)ccc2Cl)c1`, 21.7% (inactive).
For the molecule `CCSc1nc2c(sc3nc(C)cc(C)c32)c(=O)[nH]1`, the CPE inhibition is 18% (inactive).
In the case of `CCOc1ccc(NC(=O)Nc2cc(-c3ccccc3)sc2C(=O)OC)cc1`, the CPE inhibition was 14.7% (inactive).
Regarding `CC1=Nc2ccccc2/C1=C/c1c(N)n2c(S(=O)(=O)C(C)C)nsc2nc1=O`, the CPE inhibition was 19% (inactive).
As for `O=C(O)c1ccc2[nH]c3c(c2c1)CSCC3`, the CPE inhibition was 2.13% (inactive).
In the case of `COc1ccc(-c2csc(Nc3ncccc3C)n2)cc1OC`, the CPE inhibition was 14.9% (inactive).
On to `COc1ccc(Cn2c(C)c(C)c(C#N)c2NC(=O)Nc2cccc(Cl)c2)cc1`, for which the CPE inhibition is 10.6% (inactive).
Under `CCCn1c2c(c(O)c(C(=O)Nc3nc4ccccc4s3)c1=O)CCCC2` stands 19.3% (inactive); under `Cc1cccc(-n2nc(C)c3c(C(=O)O)cc(-c4cccs4)nc32)c1`, 24.9% (inactive); under `O=C(O)CSc1nnc(CNc2cccc(C(F)(F)F)c2)n1Cc1ccco1`, 3.89% (inactive).
For `COc1cccc(C2=CC(c3ccc(N(C)C)cc3)n3ncnc3N2)c1` (stereo not given), the CPE inhibition is 8.59% (inactive).
Then `O=C1CN(C(=O)/C=C/c2ccc(Cl)cc2)c2ccccc2N1`, with 7.62% (inactive); and `O=C(O)c1cnc(-c2ccccc2)nc1Sc1ccc(Cl)cc1`, with 15.2% (inactive).
In the case of `CCOC(=O)c1ccc(NC(=O)CC2S/C(=N/N=C/c3c[nH]c4ccccc34)NC2=O)cc1` (stereo not given), the CPE inhibition was 11.7% (inactive).
Under `C/C=C/c1ccc(OCCCCOc2ccccc2C(C)=O)c(OC)c1` stands 11.9% (inactive); under `O=C(O)c1cc(N/N=C/c2ccc(OCc3ccccc3)cc2)ccc1Cl`, 19.7% (inactive); under `C/C(=N\NC(=O)c1c(Cl)c(C)nn1C)c1ccc(NC(=O)c2ccncc2)cc1`, 17.7% (inactive).
Then `Cc1nc(Nc2ccccc2)sc1-c1ccccc1`, with 3.32% (inactive); and `N=C1/C(=C/c2cccs2)C(=O)N=C2SN=C(SCc3ccccc3)N12`, with 29.3% (inactive); and `CC1CCCN(C(=O)c2cccc(S(=O)(=O)Nc3cc(C(F)(F)F)ccc3Cl)c2)C1` (stereo not given), with 28.2% (inactive).
With `O=c1[nH]n2c(=O)c3c([nH]c2c1N=Nc1cccc(Cl)c1)CCC3`, the CPE inhibition was 16.8% (inactive).
For the molecule `OCCNc1nc(Nc2ccccc2)nc2ccccc12`, the CPE inhibition is 15.3% (inactive).
Under `Cc1csc(NC(=O)CN2C(=O)C3CC=CCC3C2=O)n1` (stereo not given) stands 1.87% (inactive); under `CCSc1nnc(NC(=O)c2ccc(Br)s2)s1`, 16.8% (inactive); under `O=[N+]([O-])c1cc(/C=N\Nc2nc(-c3ccccc3)cs2)ccc1O`, 26.1% (inactive).
As for `N#CCCN(Cc1cccnc1)C(=S)Nc1ccc(OC(F)F)cc1`, the CPE inhibition was 3.08% (inactive).
Consider `CC(C)n1c(NCCc2ccccc2)nc2c1c(=O)n(C)c(=O)n2C`, for which the CPE inhibition was 7.91% (inactive).
As to `N#Cc1c2n(c3c(=S)nc[nH]c13)CCCCC2`, the CPE inhibition was 9.66% (inactive).
Under `CCOC(=O)c1ccc(NC(=O)Cn2nnc(-c3ccccc3)n2)cc1` stands 12.9% (inactive).
In the case of `Cc1ccc(C(CC(=O)O)Nc2nc(N3CCCCC3)nc(N3CCCCC3)n2)cc1` (stereo not given), the CPE inhibition was 9.28% (inactive).
For the molecule `c1ccc(CSc2ccc(-c3cccnc3)nn2)nc1`, the CPE inhibition is 0.68% (inactive).
Turning to `COc1ccc2nc(NC(=O)C3=NN(c4ccccc4)C(=O)CC3)sc2c1`, the CPE inhibition is -2.13% (inactive).
Then `CC(=O)Nc1ccc(NC(=O)COc2ccccc2C(=O)Nc2cccc(Cl)c2Cl)cc1`, with 15% (inactive).
Take `FC(F)(F)c1cccc(Oc2ccc3c(C(F)(F)F)cc(C(F)(F)F)nc3n2)c1`: the CPE inhibition was 3.1% (inactive).
With `Cc1cccc(-n2c3nc(=O)[nH]c(=O)c-3cc3cc([N+](=O)[O-])ccc32)c1`, the CPE inhibition was 16.1% (inactive).
Then `CC1=C(C(=O)OC2CCCCCCC2)C(c2cccc(O)c2)NC(=O)N1` (stereo not given), with 7% (inactive); and `O=c1c(Cl)c(N2CCN(c3ccc(F)cc3)CC2)cnn1C12CC3CC(CC(C3)C1)C2`, with -3.76% (inactive); and `O=C1c2ccccc2N2C(=O)c3ccccc3[C@H]2N1c1ccccc1`, with 2.15% (inactive).
Then `Cc1ccc2c(c1)c(Sc1ccccc1)c(CC(=O)O)n2C`, with -0.49% (inactive); and `Cc1ccc(NC(=O)c2cncc(Br)c2)c(O)c1`, with 13.8% (inactive).
Regarding `COCCn1c(-c2ccccc2Cl)nc2c(c(=O)c3ccccc3n2C)c1=O`, the CPE inhibition is 4.39% (inactive).
Consider `CCCc1cc(=O)[nH]c(SCC(=O)NC)n1`, for which the CPE inhibition was -0.15% (inactive).
Take `CCc1ccc(C(=O)Nc2ccc(S(=O)(=O)Nc3nc(C)cc(C)n3)cc2)o1`: the CPE inhibition was 24.5% (inactive).
Then `CCOC(=O)c1csc(NC(=O)CC2CCCC2)n1`, with 6.07% (inactive).
Take `CN(C(=O)c1coc(=O)c2ccccc12)c1ccc(Br)cc1`: the CPE inhibition was 18.4% (inactive).
For the molecule `O=C(Nn1c(SCc2cccc([N+](=O)[O-])c2)nc2ccccc2c1=O)c1ccccc1`, the CPE inhibition is 29.8% (inactive).
Consider `CC1Cc2ccccc2N1S(=O)(=O)c1cccc(C(=O)N2CCN(c3ncccn3)CC2)c1` (stereo not given), for which the CPE inhibition was 19.4% (inactive).
Under `COc1ccc(Br)cc1CN(C)CC(=O)Nc1c(Cl)cccc1Cl` stands 28.5% (inactive); under `Cc1oc(-c2ccccc2Cl)nc1CSCC(=O)N1CCCC1`, 16.4% (inactive).
Then `N#C/C(=C\c1cn[nH]c1-c1ccc(Cl)cc1)C(=O)NCc1ccccc1`, with 12.6% (inactive); and `COc1cccc(C2=CC(c3ccc(C)cc3)n3ncnc3N2)c1` (stereo not given), with 22.6% (inactive); and `CS(=O)(=O)C1=NSC2=NC(=O)/C(=C\c3cccn3-c3ccccc3Cl)C(=N)N21`, with 8.16% (inactive).
Under `OC(CNCC1(N2CCCCC2)CCCCC1)COc1ccc(Cl)cc1Cl` (stereo not given) stands 11.6% (inactive); under `COc1ccc(CCCc2nnc(SCc3nc4ccccc4c(=O)[nH]3)n2C)cc1`, 3.86% (inactive).
Take `Cc1cccc(CSc2nnc(NC(=O)CSc3nnc(C)s3)s2)c1`: the CPE inhibition is 17.3% (inactive).
Consider `O=Cc1ccc(OCc2ccccn2)cc1`, for which the CPE inhibition was 2.77% (inactive).
Regarding `CCCCCCCCCCCC(=O)NC(C(=O)O)C(O)c1ccccc1` (stereo not given), the CPE inhibition was 11.5% (inactive).
Under `CC1CC(C)CN(c2nc(NCc3ccco3)nc(N)c2[N+](=O)[O-])C1` (stereo not given) stands 25.5% (inactive); under `COc1cc(C(=O)Nc2sc(C)c(C)c2C(=O)O)cc(OC)c1OC`, 26% (inactive); under `COC(=O)c1c(-c2ccccc2)csc1N1C(=O)Nc2ccccc2N1O`, 10.9% (inactive).
